Values of other authors, collected in patent US20080103199A1, “TREATMENT OF PERVASIVE DEVELOPMENTAL DISORDERS” (priority 2006, published 2008).

Test system: dominant rats
Settings: administered to dominant rats; literature (Malatynska 2002); cited from earlier work

Clc1cccc(Cl)c1N=C1NCCN1 [clonidine]
Effect on competitive behavior of dominant rats: significantly reduced competitive behavior
